Marks after values point to notes of the source that are not given here.
What was measured:
Type in all cases: in vivo
Amaranthus retroflexus [1] = test: greenhouse pre-emergence treatment, AMARE; details: pre-emergence (value labeled *), scale 0-100
Description: (§1) The culture containers used were plastic flowerpots containing loamy sand with approximately 3.0% of humus as the substrate. The seeds of the test plants were sown separately for each species.
(§2) For the pre-emergence treatment, the active ingredients, which had been suspended or emulsified in water, were applied directly after sowing by means of finely distributing nozzles. The containers were irrigated gently to promote germination and growth and subsequently covered with transparent plastic hoods until the plants had rooted. This cover caused uniform germination of the test plants, unless this has been impaired by the active ingredients.
(§3) Depending on the species, the plants were kept at 10-25° C. or 20-35° C. The test period extended over 2 to 4 weeks. During this time, the plants were tended, and their response to the individual treatments was evaluated.
(§4) Evaluation was carried out using a scale from 0 to 100. 100 means no emergence of the plants, or complete destruction of at least the aerial moieties, and 0 means no damage, or normal course of growth. A good herbicidal activity is given at values of at least 70 and a very good herbicidal activity is given at values of at least 85.
(§5) The plants used in the greenhouse experiments belonged to the following species:
(§6) Following representative compounds of formula I according to Table 9 were used in post-emergence treatments in greenhouse experiments (values labeled with * result from pre-emergence experiments): […]

Chenopodium album = test: greenhouse post-emergence treatment, CHEAL; details: scale 0-100
Description: as §1
(§7) For the post-emergence treatment, the test plants were first grown to a height of 3 to 15 cm, depending on the plant habit, and only then treated with the active ingredients which had been suspended or emulsified in water. For this purpose, the test plants were either sown directly and grown in the same containers, or they were first grown separately as seedlings and transplanted into the test containers a few days prior to treatment.
as §3, §4, §5, §6

Polygonum convolvulus = test: greenhouse post-emergence treatment, POLCO; details: scale 0-100
Description: as §1, §7, §3, §4, §5, §6

Amaranthus retroflexus [2] = test: greenhouse post-emergence treatment, AMARE; details: scale 0-100
Description: as §1, §7, §3, §4, §5, §6

Agrostis spica-venti = test: greenhouse pre-emergence treatment, APESV; details: pre-emergence (value labeled *), scale 0-100
Description: as §1, §2, §3, §4, §5, §6

Echinochloa crus-galli = test: greenhouse post-emergence treatment, ECHCG; details: scale 0-100
Description: as §1, §7, §3, §4, §5, §6

Abutilon theophrasti [3] = test: greenhouse pre-emergence treatment, ABUTH; details: pre-emergence (value labeled *), scale 0-100
Description: as §1, §2, §3, §4, §5, §6

Abutilon theophrasti [4] = test: greenhouse post-emergence treatment, ABUTH; details: 1000 g/ha, scale 0-100
Description: as §1, §7, §3, §4
The plants used in the greenhouse experiments belonged to the following species: […]

## Cc1c(C(=O)Nc2ncnn2C)cc(F)cc1S(C)(=O)=O [compound 10]
Amaranthus retroflexus [1]; 250 g/ha
  [%] damage to weed III (AMARE): 95* %
Chenopodium album; 250 g/ha
  [%] damage to weed VI (CHEAL): 100%
Polygonum convolvulus; 250 g/ha
  [%] damage to weed IX (POLCO): 100%
Amaranthus retroflexus [2]; 250 g/ha
  [%] damage to weed III (AMARE): 100; %

## CSc1c(F)cc(Cl)c(C(=O)Nc2ncnn2C)c1F [compound 94]
Agrostis spica-venti; 250 g/ha
  [%] damage to weed IV (APESV): 90* %
Echinochloa crus-galli; 250 g/ha
  [%] damage to weed VII (ECHCG): 95%
Chenopodium album; 250 g/ha
  [%] damage to weed VI (CHEAL): 100%
Amaranthus retroflexus [2]; 250 g/ha
  [%] damage to weed III (AMARE): 100%

## CCCn1ncnc1NC(=O)c1c(F)cc(Cl)c(SC)c1Cl [compound 62]
Agrostis spica-venti; 250 g/ha
  [%] damage to weed IV (APESV): 80* %
Echinochloa crus-galli; 250 g/ha
  [%] damage to weed VII (ECHCG): 98%
Chenopodium album; 250 g/ha
  [%] damage to weed VI (CHEAL): 100%
Amaranthus retroflexus [2]; 250 g/ha
  [%] damage to weed III (AMARE): 100%

## CSc1ccc(Cl)c(C(=O)Nc2ncnn2C)c1Cl [compound 81]
Agrostis spica-venti; 250 g/ha
  [%] damage to weed IV (APESV): 95* %
Echinochloa crus-galli; 250 g/ha
  [%] damage to weed VII (ECHCG): 98%
Chenopodium album; 250 g/ha
  [%] damage to weed VI (CHEAL): 100%
Amaranthus retroflexus [2]; 250 g/ha
  [%] damage to weed III (AMARE): 100%

## CCOc1c(Cl)cc(F)c(C(=O)Nc2nnnn2CC)c1Cl [compound 63]
Amaranthus retroflexus [1]; 500 g/ha
  [%] damage to weed III (AMARE): 100* %
Chenopodium album; 500 g/ha
  [%] damage to weed VI (CHEAL): 100%
Polygonum convolvulus; 500 g/ha
  [%] damage to weed IX (POLCO): 98%
Amaranthus retroflexus [2]; 500 g/ha
  [%] damage to weed III (AMARE): 100; %

## CCCSc1c(Cl)cc(F)c(C(=O)Nc2nnnn2C)c1Cl [compound 21]
Abutilon theophrasti [3]; 243 g/ha
  [%] damage to weed I (ABUTH): 100* %
Echinochloa crus-galli; 243 g/ha
  [%] damage to weed VII (ECHCG): 100%
Chenopodium album; 243 g/ha
  [%] damage to weed VI (CHEAL): 100%
Amaranthus retroflexus [2]; 243 g/ha
  [%] damage to weed III (AMARE): 100%

## CCSc1c(Cl)cc(Cl)c(C(=O)Nc2ncnn2C)c1Cl [compound 61]
Agrostis spica-venti; 500 g/ha
  [%] damage to weed IV (APESV): 98* %
Echinochloa crus-galli; 500 g/ha
  [%] damage to weed VII (ECHCG): 98%
Chenopodium album; 500 g/ha
  [%] damage to weed VI (CHEAL): 100%
Amaranthus retroflexus [2]; 500 g/ha
  [%] damage to weed III (AMARE): 100%

## COCCn1nnnc1NC(=O)c1c(F)cc(Cl)c([S+](C)[O-])c1Cl (stereo not drawn) [compound 74]
Abutilon theophrasti [3]; 110 g/ha
  [%] damage to weed I (ABUTH): 98* %
Echinochloa crus-galli; 110 g/ha
  [%] damage to weed VII (ECHCG): 100%
Chenopodium album; 110 g/ha
  [%] damage to weed VI (CHEAL): 100%
Amaranthus retroflexus [2]; 110 g/ha
  [%] damage to weed III (AMARE): 100%

## CC[S+]([O-])c1c(Cl)cc(F)c(C(=O)Nc2ncnn2C)c1Cl (stereo not drawn) [compound 14]
Abutilon theophrasti [3]; 250 g/ha
  [%] damage to weed I (ABUTH): 100* %
Chenopodium album; 250 g/ha
  [%] damage to weed VI (CHEAL): 100%
Polygonum convolvulus; 250 g/ha
  [%] damage to weed IX (POLCO): 100%
Amaranthus retroflexus [2]; 250 g/ha
  [%] damage to weed III (AMARE): 100%

## Cc1c(C(=O)Nc2nnnn2C)cc(F)c(S(C)(=O)=O)c1S(C)(=O)=O [compound 66]
Amaranthus retroflexus [1]; 1000 g/ha
  [%] damage to weed III (AMARE): 100* %
Echinochloa crus-galli; 1000 g/ha
  [%] damage to weed VII (ECHCG): 100%
Abutilon theophrasti [4]
  [%] damage to weed I (ABUTH): 100%
Amaranthus retroflexus [2]; 1000 g/ha
  [%] damage to weed III (AMARE): 100; %

## CCS(=O)(=O)c1c(Cl)cc(F)c(C(=O)Nc2nnnn2CCOC)c1Cl [compound 80]
Abutilon theophrasti [3]; 125 g/ha
  [%] damage to weed I (ABUTH): 100* %
Echinochloa crus-galli; 125 g/ha
  [%] damage to weed VII (ECHCG): 100%
Chenopodium album; 125 g/ha
  [%] damage to weed VI (CHEAL): 100%
Amaranthus retroflexus [2]; 125 g/ha
  [%] damage to weed III (AMARE): 100%

## CCSc1c(Cl)cc(F)c(C(=O)Nc2ncnn2C)c1Cl [compound 11]
Abutilon theophrasti [3]; 250 g/ha
  [%] damage to weed I (ABUTH): 100* %
Chenopodium album; 250 g/ha
  [%] damage to weed VI (CHEAL): 100%
Polygonum convolvulus; 250 g/ha
  [%] damage to weed IX (POLCO): 100%
Amaranthus retroflexus [2]; 250 g/ha
  [%] damage to weed III (AMARE): 100%

Source: patent publication US20160108008A1, “Substituted N-(Tetrazol-5-yl)- and N-(Triazol-5-yl)arylcarboxamide Compounds and Their Use as Herbicides” (BASF SE, priority 2013, published 2016)
